Results from US9340590B2 (priority 2011, dated 2016).

Key:
Experiment in all cases: cell-based
hNav1.7 = hNav1.7 (Homo sapiens, UniProt Q15858); type: cell-based; settings: IonWorks Quattro, use-dependent block, hNav1.7; read-out: IWQ Use Nav1.7
hNav1.5 = hNav1.5 (Homo sapiens, UniProt Q14524); settings: IonWorks Quattro, use-dependent block, hNav1.5; read-out: IWQ Use Nav1.5
hNav1.3 = hNav1.3 (Homo sapiens, UniProt Q9NY46); settings: IonWorks Quattro, use-dependent block, hNav1.3; read-out: IWQ Use Nav1.3
hNav1.3, sequence (Q9NY46 whole entry, looked up): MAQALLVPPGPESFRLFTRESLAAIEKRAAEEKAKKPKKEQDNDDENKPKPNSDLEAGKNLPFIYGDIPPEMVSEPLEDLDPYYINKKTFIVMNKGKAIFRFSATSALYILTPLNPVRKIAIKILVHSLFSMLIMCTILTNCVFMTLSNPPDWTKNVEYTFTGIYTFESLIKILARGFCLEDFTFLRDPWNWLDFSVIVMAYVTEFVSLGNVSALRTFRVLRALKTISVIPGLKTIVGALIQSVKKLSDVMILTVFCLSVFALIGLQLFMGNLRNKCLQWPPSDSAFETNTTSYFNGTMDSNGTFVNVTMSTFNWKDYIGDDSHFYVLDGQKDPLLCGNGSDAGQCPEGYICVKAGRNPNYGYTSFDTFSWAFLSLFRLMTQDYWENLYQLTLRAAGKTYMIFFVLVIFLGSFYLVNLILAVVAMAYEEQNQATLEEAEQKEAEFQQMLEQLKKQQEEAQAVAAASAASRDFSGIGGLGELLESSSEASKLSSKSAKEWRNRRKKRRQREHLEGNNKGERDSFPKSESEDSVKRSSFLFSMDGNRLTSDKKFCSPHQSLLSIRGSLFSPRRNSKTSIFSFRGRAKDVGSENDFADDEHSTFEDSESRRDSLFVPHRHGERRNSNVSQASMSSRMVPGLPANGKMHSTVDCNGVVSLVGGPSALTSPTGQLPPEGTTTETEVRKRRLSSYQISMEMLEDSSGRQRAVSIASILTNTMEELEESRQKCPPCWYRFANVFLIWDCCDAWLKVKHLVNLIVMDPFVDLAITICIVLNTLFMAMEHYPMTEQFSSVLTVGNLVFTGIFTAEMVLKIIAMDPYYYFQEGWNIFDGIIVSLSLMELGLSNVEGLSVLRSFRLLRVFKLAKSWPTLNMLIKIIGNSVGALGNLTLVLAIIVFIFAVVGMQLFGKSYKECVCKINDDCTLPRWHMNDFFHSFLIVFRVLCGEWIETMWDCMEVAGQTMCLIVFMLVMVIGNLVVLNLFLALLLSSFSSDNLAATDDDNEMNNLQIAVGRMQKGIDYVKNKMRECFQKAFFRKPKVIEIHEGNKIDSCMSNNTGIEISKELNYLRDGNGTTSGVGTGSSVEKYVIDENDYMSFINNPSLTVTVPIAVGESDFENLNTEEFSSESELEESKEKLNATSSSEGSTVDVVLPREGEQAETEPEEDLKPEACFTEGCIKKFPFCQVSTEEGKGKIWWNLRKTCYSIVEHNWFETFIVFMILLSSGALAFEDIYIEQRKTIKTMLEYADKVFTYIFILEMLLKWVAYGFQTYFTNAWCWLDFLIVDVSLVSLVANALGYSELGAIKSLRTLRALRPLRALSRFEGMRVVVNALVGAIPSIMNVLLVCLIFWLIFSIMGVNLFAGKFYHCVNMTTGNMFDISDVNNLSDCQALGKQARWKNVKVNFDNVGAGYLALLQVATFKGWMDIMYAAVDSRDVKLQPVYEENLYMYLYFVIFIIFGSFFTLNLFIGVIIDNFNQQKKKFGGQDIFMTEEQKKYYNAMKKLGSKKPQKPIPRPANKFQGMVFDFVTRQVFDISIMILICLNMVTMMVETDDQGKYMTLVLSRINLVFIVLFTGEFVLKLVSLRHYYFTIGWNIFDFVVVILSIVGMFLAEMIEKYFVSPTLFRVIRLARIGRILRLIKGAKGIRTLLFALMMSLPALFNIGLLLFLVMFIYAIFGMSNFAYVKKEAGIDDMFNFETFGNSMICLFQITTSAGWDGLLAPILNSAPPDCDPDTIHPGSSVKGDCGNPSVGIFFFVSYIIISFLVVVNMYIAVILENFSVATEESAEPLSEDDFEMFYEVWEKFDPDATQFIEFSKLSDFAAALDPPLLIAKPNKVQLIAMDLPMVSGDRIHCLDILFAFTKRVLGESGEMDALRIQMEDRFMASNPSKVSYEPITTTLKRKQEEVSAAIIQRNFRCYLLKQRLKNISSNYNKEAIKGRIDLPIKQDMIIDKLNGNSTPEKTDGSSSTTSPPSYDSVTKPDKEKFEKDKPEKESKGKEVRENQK

hNav1.5, sequence (Q14524 whole entry, looked up): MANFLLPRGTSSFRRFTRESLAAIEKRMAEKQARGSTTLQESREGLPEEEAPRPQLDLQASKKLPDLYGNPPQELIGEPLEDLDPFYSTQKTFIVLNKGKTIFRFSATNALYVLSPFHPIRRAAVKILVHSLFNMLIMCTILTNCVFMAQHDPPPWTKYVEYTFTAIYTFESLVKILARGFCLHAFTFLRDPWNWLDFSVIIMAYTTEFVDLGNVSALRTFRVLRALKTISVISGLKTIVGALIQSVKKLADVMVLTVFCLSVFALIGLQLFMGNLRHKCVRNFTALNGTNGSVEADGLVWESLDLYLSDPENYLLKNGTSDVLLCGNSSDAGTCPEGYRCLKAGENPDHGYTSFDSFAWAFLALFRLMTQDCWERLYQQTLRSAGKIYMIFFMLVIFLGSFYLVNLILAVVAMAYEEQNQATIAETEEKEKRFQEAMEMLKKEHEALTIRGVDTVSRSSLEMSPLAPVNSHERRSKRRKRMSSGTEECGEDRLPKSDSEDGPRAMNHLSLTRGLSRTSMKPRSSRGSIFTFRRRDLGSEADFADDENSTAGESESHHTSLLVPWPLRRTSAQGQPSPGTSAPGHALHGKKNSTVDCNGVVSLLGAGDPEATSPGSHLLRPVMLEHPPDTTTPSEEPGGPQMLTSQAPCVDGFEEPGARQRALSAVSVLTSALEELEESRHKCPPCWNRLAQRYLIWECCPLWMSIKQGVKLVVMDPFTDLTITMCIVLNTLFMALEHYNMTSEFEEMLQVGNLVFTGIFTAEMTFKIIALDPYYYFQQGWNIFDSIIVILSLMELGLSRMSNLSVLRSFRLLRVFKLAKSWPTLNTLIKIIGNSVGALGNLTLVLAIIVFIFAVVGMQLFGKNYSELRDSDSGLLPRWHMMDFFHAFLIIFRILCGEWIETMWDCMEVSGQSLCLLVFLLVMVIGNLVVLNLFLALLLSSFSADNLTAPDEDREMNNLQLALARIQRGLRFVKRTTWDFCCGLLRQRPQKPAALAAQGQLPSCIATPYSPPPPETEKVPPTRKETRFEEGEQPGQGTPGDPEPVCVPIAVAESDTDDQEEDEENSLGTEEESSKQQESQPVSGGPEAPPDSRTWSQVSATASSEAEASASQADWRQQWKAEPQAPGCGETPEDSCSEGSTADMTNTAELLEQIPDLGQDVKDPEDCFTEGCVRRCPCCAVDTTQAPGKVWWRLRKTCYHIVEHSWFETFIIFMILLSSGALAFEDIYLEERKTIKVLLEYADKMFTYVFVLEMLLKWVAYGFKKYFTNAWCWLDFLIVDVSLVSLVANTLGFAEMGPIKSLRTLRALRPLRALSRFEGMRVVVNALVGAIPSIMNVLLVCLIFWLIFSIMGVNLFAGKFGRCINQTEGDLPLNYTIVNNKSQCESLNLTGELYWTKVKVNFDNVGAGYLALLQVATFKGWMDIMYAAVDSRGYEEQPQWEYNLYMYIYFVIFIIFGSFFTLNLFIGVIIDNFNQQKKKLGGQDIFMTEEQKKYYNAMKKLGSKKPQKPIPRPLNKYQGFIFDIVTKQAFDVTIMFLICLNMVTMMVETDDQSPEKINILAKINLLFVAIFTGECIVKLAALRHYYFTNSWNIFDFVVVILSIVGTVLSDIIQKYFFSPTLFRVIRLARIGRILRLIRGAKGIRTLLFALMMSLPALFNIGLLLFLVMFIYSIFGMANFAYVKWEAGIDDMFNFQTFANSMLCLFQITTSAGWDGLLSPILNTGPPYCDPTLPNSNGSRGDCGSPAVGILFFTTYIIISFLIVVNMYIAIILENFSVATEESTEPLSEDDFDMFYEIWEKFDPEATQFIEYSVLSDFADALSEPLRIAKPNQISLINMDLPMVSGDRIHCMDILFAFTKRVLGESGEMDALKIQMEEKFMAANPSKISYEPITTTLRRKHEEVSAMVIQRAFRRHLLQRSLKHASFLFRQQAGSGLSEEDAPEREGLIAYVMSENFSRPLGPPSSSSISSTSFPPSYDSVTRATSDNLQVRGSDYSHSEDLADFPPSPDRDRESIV

Compound | IC50 (hNav1.7) [µM] | IC50 (hNav1.5) [µM] | IC50 (hNav1.3) [µM]
CC[C@H](C)[C@@H]1NC(=O)[C@H](CC(=O)O)NC(=O)[C@@H]2CCCN2C(=O)[C@H]([C@@H](C)CC)NC(=O)[C@@H]2CSSC[C@@H]3NC(=O)[C@H](C(C)C)NC(=O)[C@H](CC(C)C)NC(=O)[C@H](CC(N)=O)NC(=O)[C@@H]4CCCN4C(=O)[C@H](CCCNC(=N)N)NC(=O)[C@H](CSSC[C@H](NC(=O)[C@@H](N)CC(=O)O)C(=O)N[C@@H](CC(C)C)C(=O)NCC(=O)N[C@@H](C)C(=O)N[C@@H](Cc4ccccc4)C(=O)N[C@@H](CCCNC(=N)N)C(=O)N[C@@H](CCCCN)C(=O)N2)NC(=O)[C@H](CSSC[C@@H](C(=O)N[C@@H](CCCCN)C(=O)N[C@@H](Cc2ccc(O)cc2)C(=O)N[C@H](C(=O)N[C@@H](Cc2ccccc2)C(=O)O)C(C)C)NC(=O)[C@H](Cc2c[nH]c4ccccc24)NC(=O)[C@H](CCCNC(=N)N)NC(=O)[C@H](Cc2c[nH]cn2)NC(=O)[C@H]([C@@H](C)O)NC(=O)[C@H](CCCNC(=N)N)NC(=O)[C@H](CO)NC3=O)NC(=O)[C@H](CCCCN)NC(=O)[C@H](CC(=O)O)NC1=O [compound 842] | > 5 | > 5 | 3
CC[C@H](C)[C@@H]1NC(=O)[C@@H]2CSSC[C@@H]3NC(=O)[C@H](C(C)C)NC(=O)[C@H](CC(C)C)NC(=O)[C@H](CC(N)=O)NC(=O)[C@@H]4CCCN4C(=O)[C@H](CCCNC(=N)N)NC(=O)[C@H](CSSC[C@H](NC(=O)[C@@H](N)CC(=O)O)C(=O)N[C@@H](CC(C)C)C(=O)NCC(=O)N[C@@H](C)C(=O)N[C@@H](Cc4ccccc4)C(=O)N[C@@H](CCCNC(=N)N)C(=O)N[C@@H](CCCCN)C(=O)N2)NC(=O)[C@H](CSSC[C@@H](C(=O)N[C@@H](CCCCN)C(=O)N[C@@H](Cc2ccc(O)cc2)C(=O)N[C@H](C(=O)N[C@@H](Cc2ccccc2)C(=O)O)C(C)C)NC(=O)[C@H](Cc2c[nH]c4ccccc24)NC(=O)[C@H](CCCNC(=N)N)NC(=O)[C@H](Cc2c[nH]cn2)NC(=O)[C@H]([C@@H](C)O)NC(=O)[C@H](CCCNC(=N)N)NC(=O)[C@H](CO)NC3=O)NC(=O)[C@H](CCCCN)NC(=O)[C@H](CC(=O)O)NC(=O)[C@H](CCCCN)NC(=O)[C@H](CC(=O)O)NC(=O)[C@@H]2CCCN2C1=O [compound 843] | 3.6 | 2.8 | 0.3
CC[C@H](C)[C@@H]1NC(=O)[C@@H]2CSSC[C@@H]3NC(=O)[C@H](C(C)C)NC(=O)[C@H](CC(C)C)NC(=O)[C@H](CC(N)=O)NC(=O)[C@@H]4CCCN4C(=O)[C@H](CCCNC(=N)N)NC(=O)[C@H](CSSC[C@H](NC(=O)[C@@H](N)CC(=O)O)C(=O)N[C@@H](CC(C)C)C(=O)NCC(=O)N[C@@H](C)C(=O)N[C@@H](Cc4ccccc4)C(=O)N[C@@H](CCCNC(=N)N)C(=O)N[C@@H](CCCCN)C(=O)N2)NC(=O)[C@H](CSSC[C@@H](C(=O)N[C@@H](CCCCN)C(=O)N[C@@H](Cc2ccc(O)cc2)C(=O)N[C@H](C(=O)N[C@@H](Cc2ccccc2)C(=O)O)C(C)C)NC(=O)[C@H](Cc2c[nH]c4ccccc24)NC(=O)[C@H](CCCNC(=N)N)NC(=O)[C@H](Cc2c[nH]cn2)NC(=O)[C@H]([C@@H](C)O)NC(=O)[C@H](CCCNC(=N)N)NC(=O)[C@H](CO)NC3=O)NC(=O)[C@H](CCCCN)NC(=O)[C@H](CC(=O)O)NC(=O)[C@H](CC(C)C)NC(=O)[C@H](CC(=O)O)NC(=O)[C@@H]2CCCN2C1=O [compound 844] | 4.5 | > 5 | 4.5
CC[C@H](C)[C@@H]1NC(=O)[C@@H]2CSSC[C@@H]3NC(=O)[C@H](C(C)C)NC(=O)[C@H](CC(C)C)NC(=O)[C@H](CC(N)=O)NC(=O)[C@@H]4CCCN4C(=O)[C@H](CCCNC(=N)N)NC(=O)[C@H](CSSC[C@H](NC(=O)[C@@H](N)CC(=O)O)C(=O)N[C@@H](CC(C)C)C(=O)NCC(=O)N[C@@H](C)C(=O)N[C@@H](Cc4ccccc4)C(=O)N[C@@H](CCCNC(=N)N)C(=O)N[C@@H](CCCCN)C(=O)N2)NC(=O)[C@H](CSSC[C@@H](C(=O)N[C@@H](CCCCN)C(=O)N[C@@H](Cc2ccc(O)cc2)C(=O)N[C@H](C(=O)N[C@@H](Cc2ccccc2)C(=O)O)C(C)C)NC(=O)[C@H](Cc2c[nH]c4ccccc24)NC(=O)[C@H](CCCNC(=N)N)NC(=O)[C@H](Cc2c[nH]cn2)NC(=O)[C@H]([C@@H](C)O)NC(=O)[C@H](CCCNC(=N)N)NC(=O)[C@H](CO)NC3=O)NC(=O)[C@H](CCCCN)NC(=O)[C@H](CC(=O)O)NC(=O)[C@H](CCSC)NC(=O)[C@H](CC(=O)O)NC(=O)[C@@H]2CCCN2C1=O [compound 845] | 4.7 | > 5 | 0.8
CC[C@H](C)[C@@H]1NC(=O)[C@@H]2CSSC[C@@H]3NC(=O)[C@H](C(C)C)NC(=O)[C@H](CC(C)C)NC(=O)[C@H](CC(N)=O)NC(=O)[C@@H]4CCCN4C(=O)[C@H](CCCNC(=N)N)NC(=O)[C@H](CSSC[C@H](NC(=O)[C@@H](N)CC(=O)O)C(=O)N[C@@H](CC(C)C)C(=O)NCC(=O)N[C@@H](C)C(=O)N[C@@H](Cc4ccccc4)C(=O)N[C@@H](CCCNC(=N)N)C(=O)N[C@@H](CCCCN)C(=O)N2)NC(=O)[C@H](CSSC[C@@H](C(=O)N[C@@H](CCCCN)C(=O)N[C@@H](Cc2ccc(O)cc2)C(=O)N[C@H](C(=O)N[C@@H](Cc2ccccc2)C(=O)O)C(C)C)NC(=O)[C@H](Cc2c[nH]c4ccccc24)NC(=O)[C@H](CCCNC(=N)N)NC(=O)[C@H](Cc2c[nH]cn2)NC(=O)[C@H]([C@@H](C)O)NC(=O)[C@H](CCCNC(=N)N)NC(=O)[C@H](CO)NC3=O)NC(=O)[C@H](CCCCN)NC(=O)[C@H](CC(=O)O)NC(=O)[C@@H]2CCCN2C(=O)[C@H](CC(=O)O)NC(=O)[C@@H]2CCCN2C1=O [compound 846] | 2.9 | > 5 | 2.9
CC[C@H](C)[C@@H]1NC(=O)[C@@H]2CSSC[C@@H]3NC(=O)[C@H](C(C)C)NC(=O)[C@H](CC(C)C)NC(=O)[C@H](CC(N)=O)NC(=O)[C@@H]4CCCN4C(=O)[C@H](CCCNC(=N)N)NC(=O)[C@H](CSSC[C@H](NC(=O)[C@@H](N)CC(=O)O)C(=O)N[C@@H](CC(C)C)C(=O)NCC(=O)N[C@@H](C)C(=O)N[C@@H](Cc4ccccc4)C(=O)N[C@@H](CCCNC(=N)N)C(=O)N[C@@H](CCCCN)C(=O)N2)NC(=O)[C@H](CSSC[C@@H](C(=O)N[C@@H](CCCCN)C(=O)N[C@@H](Cc2ccc(O)cc2)C(=O)N[C@H](C(=O)N[C@@H](Cc2ccccc2)C(=O)O)C(C)C)NC(=O)[C@H](Cc2c[nH]c4ccccc24)NC(=O)[C@H](CCCNC(=N)N)NC(=O)[C@H](Cc2c[nH]cn2)NC(=O)[C@H]([C@@H](C)O)NC(=O)[C@H](CCCNC(=N)N)NC(=O)[C@H](CO)NC3=O)NC(=O)[C@H](CCCCN)NC(=O)[C@H](CC(=O)O)NC(=O)[C@H](CCC(N)=O)NC(=O)[C@H](CC(=O)O)NC(=O)[C@@H]2CCCN2C1=O [compound 847] | > 5 | > 5 | 1.7
CC[C@H](C)[C@@H]1NC(=O)[C@@H]2CSSC[C@@H]3NC(=O)[C@H](C(C)C)NC(=O)[C@H](CC(C)C)NC(=O)[C@H](CC(N)=O)NC(=O)[C@@H]4CCCN4C(=O)[C@H](CCCNC(=N)N)NC(=O)[C@H](CSSC[C@H](NC(=O)[C@@H](N)CC(=O)O)C(=O)N[C@@H](CC(C)C)C(=O)NCC(=O)N[C@@H](C)C(=O)N[C@@H](Cc4ccccc4)C(=O)N[C@@H](CCCNC(=N)N)C(=O)N[C@@H](CCCCN)C(=O)N2)NC(=O)[C@H](CSSC[C@@H](C(=O)N[C@@H](CCCCN)C(=O)N[C@@H](Cc2ccc(O)cc2)C(=O)N[C@H](C(=O)N[C@@H](Cc2ccccc2)C(=O)O)C(C)C)NC(=O)[C@H](Cc2c[nH]c4ccccc24)NC(=O)[C@H](CCCNC(=N)N)NC(=O)[C@H](Cc2c[nH]cn2)NC(=O)[C@H]([C@@H](C)O)NC(=O)[C@H](CCCNC(=N)N)NC(=O)[C@H](CO)NC3=O)NC(=O)[C@H](CCCCN)NC(=O)[C@H](CC(=O)O)NC(=O)[C@H](CCCNC(=N)N)NC(=O)[C@H](CC(=O)O)NC(=O)[C@@H]2CCCN2C1=O [compound 848] | 4.5 | > 5 | 0.6
CC[C@H](C)[C@@H]1NC(=O)[C@@H]2CSSC[C@@H]3NC(=O)[C@H](C(C)C)NC(=O)[C@H](CC(C)C)NC(=O)[C@H](CC(N)=O)NC(=O)[C@@H]4CCCN4C(=O)[C@H](CCCNC(=N)N)NC(=O)[C@H](CSSC[C@H](NC(=O)[C@@H](N)CC(=O)O)C(=O)N[C@@H](CC(C)C)C(=O)NCC(=O)N[C@@H](C)C(=O)N[C@@H](Cc4ccccc4)C(=O)N[C@@H](CCCNC(=N)N)C(=O)N[C@@H](CCCCN)C(=O)N2)NC(=O)[C@H](CSSC[C@@H](C(=O)N[C@@H](CCCCN)C(=O)N[C@@H](Cc2ccc(O)cc2)C(=O)N[C@H](C(=O)N[C@@H](Cc2ccccc2)C(=O)O)C(C)C)NC(=O)[C@H](Cc2c[nH]c4ccccc24)NC(=O)[C@H](CCCNC(=N)N)NC(=O)[C@H](Cc2c[nH]cn2)NC(=O)[C@H]([C@@H](C)O)NC(=O)[C@H](CCCNC(=N)N)NC(=O)[C@H](CO)NC3=O)NC(=O)[C@H](CCCCN)NC(=O)[C@H](CC(=O)O)NC(=O)[C@H](CO)NC(=O)[C@H](CC(=O)O)NC(=O)[C@@H]2CCCN2C1=O [compound 849] | > 5 | > 5 | 1.1
CC[C@H](C)[C@@H]1NC(=O)[C@@H]2CSSC[C@@H]3NC(=O)[C@H](C(C)C)NC(=O)[C@H](CC(C)C)NC(=O)[C@H](CC(N)=O)NC(=O)[C@@H]4CCCN4C(=O)[C@H](CCCNC(=N)N)NC(=O)[C@H](CSSC[C@H](NC(=O)[C@@H](N)CC(=O)O)C(=O)N[C@@H](CC(C)C)C(=O)NCC(=O)N[C@@H](C)C(=O)N[C@@H](Cc4ccccc4)C(=O)N[C@@H](CCCNC(=N)N)C(=O)N[C@@H](CCCCN)C(=O)N2)NC(=O)[C@H](CSSC[C@@H](C(=O)N[C@@H](CCCCN)C(=O)N[C@@H](Cc2ccc(O)cc2)C(=O)N[C@H](C(=O)N[C@@H](Cc2ccccc2)C(=O)O)C(C)C)NC(=O)[C@H](Cc2c[nH]c4ccccc24)NC(=O)[C@H](CCCNC(=N)N)NC(=O)[C@H](Cc2c[nH]cn2)NC(=O)[C@H]([C@@H](C)O)NC(=O)[C@H](CCCNC(=N)N)NC(=O)[C@H](CO)NC3=O)NC(=O)[C@H](CCCCN)NC(=O)[C@H](CC(=O)O)NC(=O)[C@H]([C@@H](C)O)NC(=O)[C@H](CC(=O)O)NC(=O)[C@@H]2CCCN2C1=O [compound 850] | > 5 | > 5 | 1.3
